These results are taken from patent publication US9593122B2, “Substituted pyrazolylpyrazole derivative and use of same as herbicide” (KYOYU AGRI CO., LTD., priority 2013, dated 2017).

For one data set, the system named is Echinochloa crus-galli. Description: Paddy herbicidal activity test. The class given is in vivo. Particulars: irrigated paddy pot, treated at 3.5 leaf stage of Echinochloa crus-galli, 30 days. The method, boiled down: (§1)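 Flooded paddy-soil pots (3 cm water) were sown with Echinochloa, Monochoria and Scirpus, and rice at the 2.0-leaf stage was transplanted. Diluted wettable powder was dripped in per are at weed 3.5-leaf stage. After 30 days in a greenhouse (~30 °C), growth inhibition versus untreated plants was scored on an 11-level scale.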

In the next data set the test system is Monochoria vaginalis. Nature of the data set: Paddy herbicidal activity test. The format is in vivo. Particulars: irrigated paddy pot, 30 days. The method in brief:
as §1

A further data set concerns Scirpus juncoides. Description: Paddy herbicidal activity test. The format is in vivo. Particulars: irrigated paddy pot, 30 days. The method in brief:
as §1

A further data set relates to Rice plants. Nature of the data set: Paddy herbicidal activity test, phytotoxicity to transplanted rice. The format is in vivo. The note with it: rice transplanted at 2.0 leaf stage, 30 days. Here is the method:
Rice paddy soil was filled into a 1/10000 are pot followed by the addition of suitable amounts of water and chemical fertilizer, kneading, seeding with Echinochloa crus-galli, Monochoria vaginalis and Scirpus juncoides and maintaining in an irrigated state at a water depth of 3 cm.
Wettable powder of Target Compound (I) shown in Table 1 prepared in compliance with the preparation examples were diluted with a suitable amount of water, rice plants in the 2.0 leaf stage were transplanted during 3.5 leaf stage of Echinochloa crus-galli, and treated by dropping in chemical in the prescribed amount per are using a pipette.
(§2) After treating for 30 days in a glass greenhouse at an average atmospheric temperature of 30° C., the herbicidal efficacy thereof was investigated.
Evaluation of herbicidal efficacy was carried out by comparing growth inhibition rate (%) with an untreated group, while evaluation of phytotoxicity was carried out by comparing growth inhibition rate (%) with the state of a complete eradication group, and were evaluated at 11 levels indicated below.

For data set [1], the system named is Amaranthus retroflexus. Description: Farming soil treatment test. The class given is in vivo. Particulars: soil surface spray prior to weed growth, 30 days. As for the experimental part: (§3) Field soil was filled into a 1/6000 are pot followed by seeding with Digitaria ciliaris, Chenopodium album and Amaranthus retroflexus and covering with soil.
(§4) Wettable powder of compounds of formula (I) shown in Table 1 prepared in compliance with the preparation examples were diluted with water to the prescribed amount of chemical and uniformly sprayed onto each soil surface layer using 10 liters of sprayed water per are prior to weed growth following seeding.
as §2
(§5) Evaluation of herbicidal efficacy is carried out in the same manner as the above-mentioned Test Example 1.

For data set [2], the system named is Chenopodium album. Description: Farming soil treatment test. The format is in vivo. The note with it: soil surface spray prior to weed growth, 30 days. Here is the method:
as §3, §4, §2, §5

In data set [3] the test system is Digitaria ciliaris. Nature of the data set: Farming soil treatment test. The class given is in vivo. The note with it: soil surface spray prior to weed growth, 30 days. As for the experimental part: as §3, §4, §2, §5
Data set [4] relates to Amaranthus retroflexus. Description: Weed foliar treatment test. The format is in vivo. Particulars: foliar spray, 3 weeks. Here is the method:
(§6) Soil was filled into a 1/6000 are pot followed by seeding with Digitaria ciliaris, Chenopodium album and Amaranthus retroflexus, covering with soil, and cultivating in a glass greenhouse at an average atmospheric temperature of 25° C.
(§7) Wettable powder of Target Compound (I) shown in Table 1 prepared in compliance with the preparation examples were diluted with water to the prescribed amount of chemical and uniformly sprayed onto the weeds using 15 liters of sprayed water per are when Digitaria ciliaris had grown to the 1.0 to 2.0 leaf stage.
(§8) After treating for 3 weeks in a glass greenhouse at an average atmospheric temperature of 25° C., the herbicidal efficacy thereof was investigated.
(§9) Evaluation of herbicidal efficacy was carried out in the same manner as the above-mentioned Test Example 1.

Data set [5] concerns Chenopodium album. Description: Weed foliar treatment test. The format is in vivo. The note with it: foliar spray, 3 weeks. Here is the method:
as §6, §7, §8, §9

Data set [6] relates to Digitaria ciliaris. Nature of the data set: Weed foliar treatment test. The class given is in vivo. The note with it: foliar spray at 1.0 to 2.0 leaf stage of Digitaria ciliaris, 3 weeks. As for the experimental part:
as §6, §7, §8, §9

Structures are written as SMILES.

As usually defined, the melting point is the temperature of the solid-liquid transition. For the compound `C=C(C)CNc1c(C#N)cnn1-c1nn2c(c1Cl)CCCC2` [Compound 1, 1-(3-chloro-4,5,6,7-tetrahydropyrazolo[1,5-a]pyridin-2-yl)-5-(2-methylprop-2-enylamino)pyrazole-4-carbonitrile], the melting point was in the range of 97 to 98 °C. In addition, the “Echinochloa crus-galli herbicidal efficacy (growth inhibition level)” value in the data set with Echinochloa crus-galli (1g a.i./10a) was 8 (8: 80% to less than 90%). Further, the “Echinochloa crus-galli herbicidal efficacy (growth inhibition level)” value in the data set with Echinochloa crus-galli (5g a.i./10a) was 9 (9: 90% to less than 100%). In the data set on Monochoria vaginalis (1g a.i./10a), the “Monochoria vaginalis herbicidal efficacy (growth inhibition level)” value is recorded as 9 (9: 90% to less than 100%). Moreover, in the data set on Monochoria vaginalis (5g a.i./10a), the “Monochoria vaginalis herbicidal efficacy (growth inhibition level)” value is recorded as 9 (9: 90% to less than 100%). Further, the “Scirpus juncoides herbicidal efficacy (growth inhibition level)” value in the data set on Scirpus juncoides (1g a.i./10a) is 7 (7: 70% to less than 80%). In addition, the “Scirpus juncoides herbicidal efficacy (growth inhibition level)” value with Scirpus juncoides (5g a.i./10a) was 8 (8: 80% to less than 90%). The “Rice plants phytotoxicity (growth inhibition level)” value in the data set on Rice plants (1g a.i./10a) is given as 0 (0 (exponent): 0% to less than 10% (growth inhibition rate)). In addition, in the data set with Rice plants (5g a.i./10a), the “Rice plants phytotoxicity (growth inhibition level)” value is 0 (0 (exponent): 0% to less than 10% (growth inhibition rate)).
`C=C(Cl)CNc1c(C#N)cnn1-c1nn2c(c1Cl)CCCC2` [Compound 2, 1-(3-chloro-4,5,6,7-tetrahydropyrazolo[1,5-a]pyridin-2-yl)-5-(2-chloroprop-2-enylamino)pyrazole-4-carbonitrile]: the melting point lay in the range of 123 to 124 °C. In addition, the “Echinochloa crus-galli herbicidal efficacy (growth inhibition level)” value in the data set with Echinochloa crus-galli (1g a.i./10a) is 9 (9: 90% to less than 100%). The “Echinochloa crus-galli herbicidal efficacy (growth inhibition level)” value in the data set with Echinochloa crus-galli (5g a.i./10a) is 9 (9: 90% to less than 100%). The “Monochoria vaginalis herbicidal efficacy (growth inhibition level)” value in the data set with Monochoria vaginalis (1g a.i./10a) is listed as 9 (9: 90% to less than 100%). For the same compound, the “Monochoria vaginalis herbicidal efficacy (growth inhibition level)” value with Monochoria vaginalis (5g a.i./10a) was 9 (9: 90% to less than 100%). For the same compound, the “Scirpus juncoides herbicidal efficacy (growth inhibition level)” value in the data set on Scirpus juncoides (1g a.i./10a) is 7 (7: 70% to less than 80%). For the same compound, the “Scirpus juncoides herbicidal efficacy (growth inhibition level)” value in the data set with Scirpus juncoides (5g a.i./10a) is recorded as 8 (8: 80% to less than 90%). Further, in the data set with Rice plants (1g a.i./10a), the “Rice plants phytotoxicity (growth inhibition level)” value is on record as 0 (0 (exponent): 0% to less than 10% (growth inhibition rate)). In the data set with Rice plants (5g a.i./10a), the “Rice plants phytotoxicity (growth inhibition level)” value is 0 (0 (exponent): 0% to less than 10% (growth inhibition rate)).
As for `C#CCNc1c(C#N)cnn1-c1nn2c(c1Cl)CCCC2` [Control agent 4.85, 4.156, reference compound], the “Echinochloa crus-galli herbicidal efficacy (growth inhibition level)” value was 2 (2: 20% to less than 30%) in the data set with Echinochloa crus-galli (1g a.i./10a) and 3 (3: 30% to less than 40%) in the data set on Echinochloa crus-galli (5g a.i./10a). The “Monochoria vaginalis herbicidal efficacy (growth inhibition level)” value was 1 (1: 10% to less than 20%) in the data set with Monochoria vaginalis (1g a.i./10a) and 3 (3: 30% to less than 40%) in the data set on Monochoria vaginalis (5g a.i./10a). Further, the “Scirpus juncoides herbicidal efficacy (growth inhibition level)” value is 0 (0 (exponent): 0% to less than 10% (growth inhibition rate)) with Scirpus juncoides (1g a.i./10a) and 1 (1: 10% to less than 20%) in the data set on Scirpus juncoides (5g a.i./10a). Besides, the “Rice plants phytotoxicity (growth inhibition level)” value with Rice plants (1g a.i./10a) and with Rice plants (5g a.i./10a) was 2 (2: 20% to less than 30%) throughout. Further, the “Amaranthus retroflexus herbicidal efficacy (growth inhibition level)” value with Amaranthus retroflexus [1] (5g a.i./10a) was 3 (3: 30% to less than 40%); with Amaranthus retroflexus [1] (10g a.i./10a) it was 6 (6: 60% to less than 70%); with Amaranthus retroflexus [4] (5g a.i./10a) it was 4 (4: 40% to less than 50%); in the data set on Amaranthus retroflexus [4] (10g a.i./10a), 6 (6: 60% to less than 70%). In addition, the “Chenopodium album herbicidal efficacy (growth inhibition level)” value is 4 (4: 40% to less than 50%) in the data set with Chenopodium album [2] (5g a.i./10a), 5 (5: 50% to less than 60%) in the data set on Chenopodium album [2] (10g a.i./10a), 5 (5: 50% to less than 60%) in the data set on Chenopodium album [5] (5g a.i./10a) and 6 (6: 60% to less than 70%) in the data set with Chenopodium album [5] (10g a.i./10a). Moreover, the “Digitaria ciliaris herbicidal efficacy (growth inhibition level)” value with Digitaria ciliaris [3] (5g a.i./10a) is 3 (3: 30% to less than 40%); with Digitaria ciliaris [3] (10g a.i./10a), 4 (4: 40% to less than 50%); with Digitaria ciliaris [6] (5g a.i./10a), 3 (3: 30% to less than 40%); with Digitaria ciliaris [6] (10g a.i./10a), 5 (5: 50% to less than 60%).
On to `C#CCN(C(=O)C(F)(F)F)c1c(C#N)cnn1-c1nn2c(c1Cl)CCCC2` [Control agent 4.239, reference compound], for which the “Echinochloa crus-galli herbicidal efficacy (growth inhibition level)” value with Echinochloa crus-galli (1g a.i./10a) is on record as 3 (3: 30% to less than 40%); with Echinochloa crus-galli (5g a.i./10a) it was 5 (5: 50% to less than 60%). The “Monochoria vaginalis herbicidal efficacy (growth inhibition level)” value in the data set with Monochoria vaginalis (1g a.i./10a) was 1 (1: 10% to less than 20%); with Monochoria vaginalis (5g a.i./10a) it was 2 (2: 20% to less than 30%). The entries for the “Scirpus juncoides herbicidal efficacy (growth inhibition level)” value with Scirpus juncoides (1g a.i./10a) and with Scirpus juncoides (5g a.i./10a) were 0 (0 (exponent): 0% to less than 10% (growth inhibition rate)) and 1 (1: 10% to less than 20%), respectively. The “Rice plants phytotoxicity (growth inhibition level)” value in the data set on Rice plants (1g a.i./10a) is reported as 0 (0 (exponent): 0% to less than 10% (growth inhibition rate)); with Rice plants (5g a.i./10a) it was 1 (1: 10% to less than 20%). The “Amaranthus retroflexus herbicidal efficacy (growth inhibition level)” value with Amaranthus retroflexus [1] (5g a.i./10a) was 3 (3: 30% to less than 40%); in the data set on Amaranthus retroflexus [1] (10g a.i./10a) it was 5 (5: 50% to less than 60%); in the data set on Amaranthus retroflexus [4] (5g a.i./10a) it was 4 (4: 40% to less than 50%); in the data set with Amaranthus retroflexus [4] (10g a.i./10a), 6 (6: 60% to less than 70%). Further, the “Chenopodium album herbicidal efficacy (growth inhibition level)” value with Chenopodium album [2] (5g a.i./10a) is 2 (2: 20% to less than 30%); with Chenopodium album [2] (10g a.i./10a) it was 3 (3: 30% to less than 40%); in the data set with Chenopodium album [5] (5g a.i./10a) it was 3 (3: 30% to less than 40%); in the data set with Chenopodium album [5] (10g a.i./10a), 4 (4: 40% to less than 50%). The “Digitaria ciliaris herbicidal efficacy (growth inhibition level)” value is 4 (4: 40% to less than 50%) in the data set on Digitaria ciliaris [3] (5g a.i./10a), 5 (5: 50% to less than 60%) with Digitaria ciliaris [3] (10g a.i./10a), 3 (3: 30% to less than 40%) in the data set with Digitaria ciliaris [6] (5g a.i./10a) and 5 (5: 50% to less than 60%) with Digitaria ciliaris [6] (10g a.i./10a).
